# Assays:
# [1] = tested on: ABUTH: Abutilon theophrasti; experiment: Post-emergence herbicidal efficacy at 80 g/ha, ABUTH; assay type: in vivo; settings: rated visually after about 3 weeks vs untreated controls, 100% = plants have died, 0% = like control plants
# Description: (§1) Seeds of monocotyledonous and dicotyledonous weeds and crop plants were placed in sandy loam in plastic or organic planting pots, covered with soil and cultivated in a greenhouse under controlled growth conditions. 2 to 3 weeks after sowing, the test plants were treated at the one-leaf stage. The compounds of the invention, formulated in the form of wettable powders (WP) or as emulsion concentrates (EC), were then sprayed onto the green parts of the plants as aqueous suspension or emulsion with addition of 0.5% additive at a water application rate of 600 l/ha (converted). After the test plants had been kept in the greenhouse under optimum growth conditions for about 3 weeks, the activity of the preparations was rated visually in comparison to untreated controls. For example, 100% activity=the plants have died, 0% activity=like control plants. Tables B1 to B10 below show the effects of selected compounds of the general formula (I) according to Table 1 on various harmful plants and an application rate corresponding to 80 g/ha, which were obtained by the experimental procedure mentioned above.
# SETVI: Setaria viridis [2] = experiment: Post-emergence herbicidal efficacy at 80 g/ha, SETVI; assay type: in vivo; settings: visual rating about 3 weeks after treatment vs untreated controls
# Description: as §1
# VERPE: Veronica persica [3] = experiment: Post-emergence herbicidal efficacy at 80 g/ha, VERPE; assay type: in vivo; settings: visual rating about 3 weeks after treatment vs untreated controls
# How it was run: (§2)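 Greenhouse plants grown in sandy loam were sprayed at the one-leaf stage, 2 to 3 weeks after sowing, with WP or EC formulations in water containing 0.5% additive at 600 l/ha. Visual rating against untreated controls came about 3 weeks later (100% = dead, 0% = as control).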
# [4] = tested on: AMARE: Amaranthus retroflexus; experiment: Pre-emergence herbicide efficacy at 80 g/ha, AMARE; assay type: in vivo; settings: scored visually after about 3 weeks
# How it was run: (§3)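 Seeds sown in pots and covered with soil received WP or EC formulations sprayed onto the soil surface at 80 g/ha, 600 l/ha water, with 0.5% additive. After about 3 weeks in greenhouse, efficacy was visually scored as percent versus untreated controls (100% = plants dead, 0% = like control).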
# [5] = tested on: DIGSA: Digitaria sanguinalis; experiment: Post-emergence herbicidal efficacy at 80 g/ha, DIGSA; assay type: in vivo; settings: visual rating about 3 weeks after treatment vs untreated controls
# Description: as §1
# [6] = tested on: DIGSA: Digitaria sanguinalis; experiment: Pre-emergence herbicide efficacy at 80 g/ha, DIGSA; assay type: in vivo; settings: scored visually after about 3 weeks
# How it was run: as §3
# LOLRI: Lolium rigidum = experiment: Pre-emergence herbicide efficacy at 80 g/ha, LOLRI; assay type: in vivo; settings: scored visually after about 3 weeks
# Description: (§4) Seeds of monocotyledonous and dicotyledonous weed plants and crop plants were placed in plastic or organic planting pots and covered with soil. The compounds of the invention, formulated in the form of wettable powders (WP) or as emulsion concentrates (EC), were then applied to the surface of the covering soil as aqueous suspension or emulsion with addition of 0.5% additive at a water application rate equivalent to 600 l/ha. After the treatment, the pots were placed in a greenhouse and kept under good growth conditions for the test plants. After about 3 weeks, the efficacy of the preparations was scored visually in comparison with untreated controls as percentages. For example, 100% activity=the plants have died, 0% activity=like control plants. Tables D1 to D12 below show the effects of selected compounds of the general formula (I) according to Table 1 on various harmful plants and an application rate corresponding to 80 g/ha, which were obtained by the experimental procedure mentioned above.
# [7] = tested on: MATIN: Matricaria inodora; experiment: Pre-emergence herbicide efficacy at 80 g/ha, MATIN; assay type: in vivo; settings: scored visually after about 3 weeks
# Description: as §4
# [8] = tested on: ECHCG: Echinochloa crus-galli; experiment: Post-emergence herbicidal efficacy at 80 g/ha, ECHCG; assay type: in vivo; settings: visual rating about 3 weeks after treatment vs untreated controls
# Description: as §1
# VERPE: Veronica persica [9] = experiment: Pre-emergence herbicide efficacy at 80 g/ha, VERPE; assay type: in vivo; settings: scored visually after about 3 weeks
# How it was run: as §3
# SETVI: Setaria viridis [10] = experiment: Pre-emergence herbicide efficacy at 80 g/ha, SETVI; assay type: in vivo; settings: scored visually after about 3 weeks
# Description: as §4
# [11] = tested on: ECHCG: Echinochloa crus-galli; experiment: Pre-emergence herbicide efficacy at 80 g/ha, ECHCG; assay type: in vivo; settings: scored visually after about 3 weeks
# Description: as §4
# POLCO [12] = experiment: Post-emergence herbicidal efficacy at 80 g/ha, POLCO; assay type: in vivo, Polygonum convolvulus; settings: visual rating about 3 weeks after treatment vs untreated controls
# Description: as §1
# [13] = tested on: ALOMY: Alopecurus myosuroides; experiment: Pre-emergence herbicide efficacy at 80 g/ha, ALOMY; assay type: in vivo; settings: scored visually after about 3 weeks
# Description: as §4
# POLCO [14] = experiment: Pre-emergence herbicide efficacy at 80 g/ha, POLCO; assay type: in vivo; settings: Polygonum convolvulus, scored visually after about 3 weeks
# How it was run: as §3
# [15] = tested on: ALOMY: Alopecurus myosuroides; experiment: Post-emergence herbicidal efficacy at 80 g/ha, ALOMY; assay type: in vivo; settings: visual rating about 3 weeks after treatment vs untreated controls
# Description: as §1
# [16] = tested on: AMARE: Amaranthus retroflexus; experiment: Post-emergence herbicidal efficacy at 80 g/ha, AMARE; assay type: in vivo; settings: visual rating about 3 weeks after treatment vs untreated controls
# How it was run: as §2
# [17] = tested on: ABUTH: Abutilon theophrasti; experiment: Pre-emergence herbicide efficacy at 80 g/ha, ABUTH; assay type: in vivo; settings: scored visually after about 3 weeks
# How it was run: as §3
smiles,measurement,setting,value
FC(F)c1cc(-c2c(Cl)cccc2Cc2ncc(Cl)cn2)on1 [Example 1-140],Post-emergence efficacy at 80 g/ha against ABUTH in %,[1],100%
same,Post-emergence efficacy against SETVI,SETVI: Setaria viridis [2],80%
same,Post-emergence efficacy against VERPE,VERPE: Veronica persica [3],100%
same,Pre-emergence efficacy against AMARE in %,[4],100%
same,Post-emergence efficacy against DIGSA,[5],90%
same,Pre-emergence efficacy against DIGSA in %,[6],100%
same,Pre-emergence efficacy against LOLRI in %,LOLRI: Lolium rigidum,90%
same,Pre-emergence efficacy against MATIN in %,[7],80%
same,Post-emergence efficacy against ECHCG,[8],90%
same,Pre-emergence efficacy against VERPE in %,VERPE: Veronica persica [9],100%
same,Pre-emergence efficacy against SETVI in %,SETVI: Setaria viridis [10],100%
same,Pre-emergence efficacy against ECHCG in %,[11],100%
same,Post-emergence efficacy against POLCO,POLCO [12],100%
same,Pre-emergence efficacy against ALOMY in %,[13],90%
same,Pre-emergence efficacy against POLCO in %,POLCO [14],90%
same,Post-emergence efficacy against ALOMY,[15],80%
same,Post-emergence efficacy against AMARE,[16],100%
same,Pre-emergence efficacy against ABUTH in %,[17],100%

# Source: patent US20250221410A1, “SUBSTITUTED 2-C-AZINES AND SALTS THEREOF, AND USE THEREOF AS HERBICIDAL ACTIVE SUBSTANCES” (BAYER AKTIENGESELLSCHAFT, priority 2022, published 2025)
